Experimental data published in US8772312B2, “Heterocyclic compounds as CRTH2 receptor antagonists” (CSPC Zhongqi Pharmaceutical Technology (Shijiazhuang) Co., …, priority 2007, dated 2014).

How the values were obtained:
[1] = target: T1, CRTH2 (Homo sapiens, UniProt Q9Y5Y4); assay: MDS Prostanoid CRTH2 Binding Assay (Catalog #268030), radioligand binding; conditions: 20 nM of tested compound; ligand 1 nM [3H]PGD2; human recombinant CHO-K1 cells; 2 hours @ 25° C.
T1 construct: host or cells: CHO-K1
T1 sequence (Q9Y5Y4 1-395): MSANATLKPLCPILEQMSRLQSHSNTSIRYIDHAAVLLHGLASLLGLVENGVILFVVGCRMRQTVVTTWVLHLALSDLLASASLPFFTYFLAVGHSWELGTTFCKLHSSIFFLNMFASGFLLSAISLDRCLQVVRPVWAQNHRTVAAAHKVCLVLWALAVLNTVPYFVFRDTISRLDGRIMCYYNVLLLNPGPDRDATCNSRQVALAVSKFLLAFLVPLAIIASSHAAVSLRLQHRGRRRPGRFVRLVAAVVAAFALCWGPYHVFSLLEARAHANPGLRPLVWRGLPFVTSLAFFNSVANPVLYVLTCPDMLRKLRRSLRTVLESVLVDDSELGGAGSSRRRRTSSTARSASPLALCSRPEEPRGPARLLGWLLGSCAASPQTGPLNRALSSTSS
Experimental: The CRTH2 binding affinity of compounds of Formula I were assayed by MDS Pharma Service using the following reagents and conditions:
• MDS Prostanoid CRTH2 Binding Assay (Catalog #268030): • Source: Human recombinant CHO-K1 cells • Ligand: 1 nM [^3H]

[2] = target: T1, CRTH2; conditions: radioligand [3H] Prostaglandin D2; historical value of the MDS assay; cited from earlier work

Structure (SMILES) | % inhibition of PGD2 binding [1] | Kd [2]
CCCCC[C@H](O)/C=C/[C@H]1C(=O)C[C@H](O)[C@@H]1C/C=C\CCCC(=O)O [PGD2, Prostaglandin D2] | – | 4.1 nM
CN(C1CCc2c(CC(=O)O)c3ccc(Cl)nc3n2C1)S(=O)(=O)c1ccc(F)cc1 (single isomer, unassigned) [Example 2A] | 97% | –
CN(C1CCc2c(CC(=O)O)c3ccc(Cl)nc3n2C1)S(=O)(=O)c1ccc(F)cc1 (single isomer, unassigned) [Example 2B] | 0% | –

Continued, in another order:

% inhibition of PGD2 binding [1] | Structure (SMILES) | Kd [2]
91% | CN(C1CCc2c(CC(=O)O)c3cccnc3n2C1)S(=O)(=O)c1ccc(F)cc1 (single isomer, unassigned) [Example 4A] | –
0% | CN(C1CCc2c(CC(=O)O)c3cccnc3n2C1)S(=O)(=O)c1ccc(F)cc1 (single isomer, unassigned) [Example 4B] | –
